Experimental data from BindingDB's records for patent US12570614 (Glaxosmith Kline, 2026).

Target: Tyrosine-protein kinase JAK2 (Homo sapiens, UniProt O60674)
Experiment: Enzyme Screening Assay
Procedure: Alphascreen phosphotyrosine acceptor beads followed by streptavidin donor beads at a concentration of 1/100 in stop buffer were added to each well under subdued light and incubated for 2-3 hours. The Alphascreen plates were read on a Packard Fusion Alpha instrument

Sequence of Tyrosine-protein kinase JAK2 (O60674 whole entry): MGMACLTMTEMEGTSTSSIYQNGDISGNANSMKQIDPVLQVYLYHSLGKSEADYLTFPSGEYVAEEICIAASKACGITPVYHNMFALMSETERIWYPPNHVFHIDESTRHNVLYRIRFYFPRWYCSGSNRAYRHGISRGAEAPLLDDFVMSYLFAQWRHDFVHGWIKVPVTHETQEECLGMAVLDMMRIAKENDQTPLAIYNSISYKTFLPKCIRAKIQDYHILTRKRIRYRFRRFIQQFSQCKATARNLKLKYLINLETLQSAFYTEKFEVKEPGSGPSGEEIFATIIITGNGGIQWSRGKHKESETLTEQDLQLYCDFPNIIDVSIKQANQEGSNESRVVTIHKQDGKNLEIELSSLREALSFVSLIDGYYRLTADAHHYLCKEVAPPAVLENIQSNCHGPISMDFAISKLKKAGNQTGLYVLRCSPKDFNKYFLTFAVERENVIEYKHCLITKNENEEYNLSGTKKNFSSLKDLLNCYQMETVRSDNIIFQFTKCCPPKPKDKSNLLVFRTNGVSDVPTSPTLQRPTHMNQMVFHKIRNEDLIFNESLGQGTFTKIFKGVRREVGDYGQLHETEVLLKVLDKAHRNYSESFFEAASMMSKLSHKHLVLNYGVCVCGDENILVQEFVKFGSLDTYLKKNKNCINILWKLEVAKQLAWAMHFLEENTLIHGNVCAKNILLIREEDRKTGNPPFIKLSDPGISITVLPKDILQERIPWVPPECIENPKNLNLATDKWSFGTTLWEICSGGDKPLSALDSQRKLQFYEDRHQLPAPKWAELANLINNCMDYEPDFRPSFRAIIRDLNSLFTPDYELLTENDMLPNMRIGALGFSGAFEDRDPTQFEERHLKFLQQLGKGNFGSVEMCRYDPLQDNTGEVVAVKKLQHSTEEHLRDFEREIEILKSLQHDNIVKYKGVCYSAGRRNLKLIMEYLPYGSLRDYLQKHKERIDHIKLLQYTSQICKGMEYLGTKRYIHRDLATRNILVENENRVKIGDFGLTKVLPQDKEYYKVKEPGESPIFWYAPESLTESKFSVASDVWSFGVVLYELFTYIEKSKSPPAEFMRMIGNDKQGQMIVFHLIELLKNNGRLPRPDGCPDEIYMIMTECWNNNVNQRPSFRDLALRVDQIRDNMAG

IC50: < 1000 nM
Compound: CCN1CCC(OC2CCC(Nc3nccc(-c4ccc(C(=O)NCC#N)cc4)n3)CC2)CC1 (stereo unspecified) [US12570614, Compound 80]
